Here are results for three compounds from patent US20240092814A1, “WATER-SOLUBLE Pd(II) COMPLEX, METHOD FOR SYNTHESIZING SAME, AND USE THEREOF AS [sequence] PRECURSOR” (priority 2022, published 2024).

The nature of data set [1]: Solubility in pure water at room temperature. In kind it is physicochemical. The source says: (§1) The pH of the solution at a concentration of 100 g/L is about 4-5.
The nature of data set [2]: Stability of aqueous solution (colour change, precipitation). In kind it is physicochemical.
Excerpt: as §1

Another data set is described as follows: pH of aqueous solution. The class given is physicochemical. The conditions noted are these: concentration of 100 g/L.
Excerpt: as §1

The nature of data set [3]: Solid-state stability and thermal decomposition (TG-DTA). The class given is physicochemical. The method, then: (3) Its solid state is stable at room temperature. In the simulated air atmosphere and nitrogen, a thermal decomposition reaction can occur at a lower temperature (<190° C.) to generate palladium metal (see FIG. 2 and FIG. 3), which can reduce energy consumption in the thermal reduction or calcination process of catalyst preparation. Moreover, the decomposition products are Pd, CO2, N2 and H2O, facilitating clean production and environmental protection.
FIG. 2: a thermogravimetric curve (TG-DTA) of (NH4)2[Pd(NO2)2(C2O4)]·2H2O of the present disclosure in simulated air.
FIG. 3: a thermogravimetric curve (TG-DTA) of (NH4)2[Pd(NO2)2(C2O4)]·2H2O of the present disclosure in nitrogen.

For data set [4] the following is noted: background statement; cited from earlier work.

Like-named read-outs stand apart in the source and are kept apart here.

In turn, `O=C1[O][Pd]([N+](=O)[O-])([N+](=O)[O-])[O]C1=O` [Pd-X6, ammonium dinitrooxalato palladium(II)] yielded a solubility in data set [1] of over 400 mg/mL. Also, the “solubility in pure water, equivalent Pd” value in data set [1] was over 120 g Pd/L. Moreover, the stability in water entry in data set [2] (60° C. for 5 hours) was “color of the solution does not change and no precipitation is observed”; in data set [2] (room temperature for 2 days), “color of the solution does not change and no precipitation is observed”. Further, the “pH of the solution” value in the data set “pH of aqueous solution” is recorded as 4-5. For the same compound, the solid state stability result in data set [3] (room temperature) was “stable”. The “thermal decomposition temperature to palladium metal” value in data set [3] (simulated air atmosphere and nitrogen) is under 190 °C.
As for `O=[N+]([O-])[O-].O=[N+]([O-])[O-].[Pd+2]` [Palladium nitrate solution, palladium nitrate], in data set [4], the stability in water entry is “unstable in water”.
As for `O.O.O=C([O-])C(=O)[O-].O=C([O-])C(=O)[O-].[NH4+].[NH4+].[Pd+2]` [(NH4)2[Pd(C2O4)2]·2H2O, ammonium bis(oxalato)palladium(II) dihydrate, reference compound], the stability entry in data set [3] (room temperature, self-redox reaction producing palladium metal) was “unstable”.
